Earlier results on four compounds are cited in PMC12495087 (ESMO Open, 2025).

In data set [1] the test system is RET-fusion-positive NSCLC. To be noted: cited from earlier work.
The conditions of data set [2]: cited from earlier work.
The test system of data set [3] is RET-fusion-positive solid tumors including RET-mutant MTC. The conditions noted are these: cited from earlier work.
The mark [4] stands for this setting: previously treated RET-fusion-positive NSCLC, selpercatinib 160 mg twice daily, pralsetinib 400 mg once daily.
Setting [5] is: previously treated RET-fusion-positive solid tumors including RET-mutant MTC, 160 mg twice daily.
[6] abbreviates: patients with MTC harboring RET-M918T.
Setting [7] is: advanced RET-rearranged lung adenocarcinomas.

The structures appear in SMILES notation. Where two headings read alike, the source gives them in different places.

In the case of `COc1ccc(CN2C3CC2CN(c2ccc(-c4cc(OCC(C)(C)O)cn5ncc(C#N)c45)cn2)C3)cn1` [selpercatinib], the mPFS in data set [1] (previously treated RET-fusion-positive NSCLC, 160 mg twice daily) was 16.5 months. In data set [1] (setting [4]), the ORR was 64%. Besides, in data set [2], the “grade ≥3 hypertension” value was “around 20%”. Moreover, in data set [3] (setting [5]), the “1-year PFS” value was 82% and the mPFS is given as 13.2 months.
As for `COc1cc2nccc(Oc3ccc(NC(=O)NC4CC4)c(Cl)c3)c2cc1C(N)=O` [lenvatinib], in data set [3] (setting [6]), the ORR was 16% and the mPFS is 7.3 months.
On to `COc1cc2nccc(Oc3ccc(NC(=O)C4(C(=O)Nc5ccc(F)cc5)CC4)cc3)c2cc1OC` [cabozantinib], for which, in data set [1] (setting [7]), the ORR was 28% and the mPFS was 5.5 months.
As to `CO[C@]1(C(=O)N[C@@H](C)c2ccc(-n3cc(F)cn3)nc2)CC[C@H](c2nc(C)cc(Nc3cc(C)[nH]n3)n2)CC1` [pralsetinib], the ORR in data set [1] (setting [4]) is on record as 61%. The “grade ≥3 hypertension” value in data set [2] was approximately 18%.
